This note sets out measurements from patent US9670242B2, “Tetracyclic anthraquinone derivatives” (Tianjin Hemay Bio-Tech Co., Ltd, priority 2012, dated 2017).

One assay relates to A431 cells. Briefly: A431 cell growth inhibition test (MTT assay). The format is cell-based, human. The conditions noted are these: 72 h. The protocol: A431 Cell Growth Inhibition Test (MTT Assay)
(§1) II. Reagents and Consumable Materials
Culture medium: 45% DMEM+45% F12+10% FBS (fetal calf serum); Pancreatin (0.25% (w/v) solution was formulated with PBS, 0.53 mM of EDTA was added in the formulation); PBS; 96-well culture plate.
(§2) 1. A plate (10 cm) of cells in logarithmic growth phase that were normally cultured was collected;
(§3) 2. The culture solution was sucked out. The plate was washed with 5 mL of PBS once or twice;
(§4) 3. PBS was sucked out. 1.5 mL of 0.25% pancreatin was added to the plate to infiltrate the cells for 1 min;
4. The culture plate was placed in an incubator. Digestion was carried out for about 5 min at 37° C.;
5. 3 mL of complete culture solution was added to the culture plate to stop the digestion. The cells were carefully scoured with micropipette (1 mL) to give a uniform cell suspension. The suspension was implanted into a 96-well cell culture disc by 2500 cells/100 μL per well. The culture plate was incubated overnight under 5% CO2 at 37° C. In day 2, 100 μL of culture solution comprising a compound was added in each well. The plate was further incubated for 72 h under 5% CO2 at 37° C.;
(§5) 6. The culture solution was sucked out;
(§6) 7. 100 μL of serum-free culture solution containing 0.5 mg/mL MTT was added in each well. The plate was incubated for 3 h;
(§7) 8. The culture solution was carefully sucked out;
(§8) 9. 100 μL of DMSO was added in each well and vibrated to dissolve;
(§9) 10. OD values were determined at 490 nM.
(§10) IV. Results and Treatments
(§11) 1. Calculation of Relative Inhibition Ratio The inhibition ratio of a compound on cell growth=(PC−n)/(PC−NC)×100%
(§12) PC: OD values of cells after normal growth in control wells without a compound;
(§13) n: OD values of cells after growth in test wells with a compound;
(§14) NC: Background OD values of blank wells without a compound and cells.

The next assay concerns MCF-7 cells. Kind of assay: MCF-7 cell growth inhibition test (SRB assay). The format is cell-based, human. The conditions noted are these: 73 h. The procedure: MCF-7 Cell Growth Inhibition Test (SRB Assay)
as §1
Culture medium: 90% EMEM+10% FBS; Pancreatin (0.25% (w/v) solution was formulated with PBS, 0.53 mM of EDTA was added in the formulation); PBS; 96-well culture plate.
as §2, §3
3. 1.5 mL of 0.25% pancreatin was added to the plate to infiltrate the cells;
4. The pancreatin was sucked out. The culture plate was placed in an incubator. Digestion was carried out for about 3 min at 37° C.;
5. 4 mL of complete culture solution was added to the culture plate to stop the digestion. The cells were carefully scoured with micropipette (1 mL) to give a uniform single cell suspension. The suspension was implanted into a 96-well cell culture plate by 10000 cells/100 μL per well. The culture plate was incubated overnight under 5% CO2 at 37° C. In day 2, 100 μL of culture solution comprising a compound was added in each well. The plate was further incubated for 73 h under 5% CO2 at 37° C.;
6. The culture solution was sucked out. 100 uL of TCA fixed cells which were diluted to 10% were added to each well. The plate was kept in a refrigerator for 1 h at 4° C.
7. TCA stationary liquid was sucked out. Each well was washed with 150 μL of ddH2O five times;
8. After the stationary liquid was cleansed, the plate was dried in the air at the room temperature;
9. 60 μL of SRB staining solution was added in each well. The well was stained for 15 min at the room temperature;
10. The SRB staining solution was sucked out. Each well was washed with 150 μL of 1% glacial acetic acid five times;
11. After the SRB staining solution was cleansed, the plate was dried in the air at the room temperature;
12. 100 μL of 10 mM Tris was added in each well. The plate was vibrated to dissolve out SRB;
13. OD values were determined at 570 nM.
as §10
1. Calculation of Relative Inhibition Ratio The inhibition ratio of a compound on cell growth=(PC−n)/(PC−NC)×100% […]

The next assay deals with DU-145 cells. Kind of assay: DU-145 cell growth inhibition test (MTT assay). To be noted: 72 h. The format is cell-based. The procedure:
DU-145 Cell Growth Inhibition Test (MTT Assay)
as §1
Culture medium: 90% EMEM+10% FBS (fetal calf serum); Pancreatin (0.25% (w/v) solution was formulated with PBS, 0.53 mM of EDTA was added in the formulation); PBS; 96-well culture plate.
as §2, §3, §4
4. The culture plate was placed in an incubator. Digestion was carried out for about 1 min at 37° C.;
5. 3 mL of complete culture solution was added to the culture plate to stop the digestion. The cells were carefully scoured with micropipette (1 mL) to give a uniform cell suspension. The suspension was implanted into a 96-well cell culture disc by 4000 cells/100 μL per well. The culture plate was incubated overnight under 5% CO2 at 37° C. In day 2, 100 μL of culture solution comprising a compound was added in each well. The plate was further incubated for 72 h under 5% CO2 at 37° C.;
as §5, §6, §7, §8, §9, §10, §11, §12, §13, §14

For another assay, the system named is SK-OV-3 cells. Briefly: SK-OV-3 cell growth inhibition test (MTT assay). The format is cell-based, human. The conditions noted are these: growth inhibition at 667 nM, 69 h. An outline of the steps: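 Human ovarian SK-OV-3 cells, 4000 per well in McCoy's 5A with 10% FBS, rested overnight, then grown 69 h with compound at 37 °C, 5% CO2. MTT (0.5 mg/mL, 3 h), DMSO solubilisation, OD at 490 nm; inhibition ratio computed against untreated and blank wells.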

The test system of a further assay is MDA-MB-453 cells. Briefly: MDA-MB-453 cell growth inhibition test (SRB assay). The format is cell-based, human. To be noted: growth inhibition at 2000 nM, 69.5 h. The method, boiled down:
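MDA-MB-453 cells (7000/well) in L15 with 10% FBS were seeded overnight, then exposed to compound for 69.5 h at 37 °C and 5% CO2. After TCA fixation and SRB staining, dye was solubilised in Tris and OD read at 570 nm. Inhibition = (PC−n)/(PC−NC)×100%.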

`COc1cccc2c1C(=O)c1c(O)c3c(c(O)c1C2=O)CC(O)(C(=O)COC(=O)CCC(=O)O)CC3OC1CC(n2cccc2)C(O)C(C)O1` (stereo not shown) [Compound A, 3′-pyrrolyldoxorubicin-14-oxo-succinic acid monoester, reference compound]: the results for the IC50 in the assay with A431 cells, with MCF-7 cells and in the assay with DU-145 cells were 68 nM, 785 nM and 99 nM, respectively.
Consider `COc1cccc2c1C(=O)c1c(O)c3c(c(O)c1C2=O)CC(O)(C(=O)COC(=O)CCC(=O)NCCOCCO)CC3OC1CC(n2cccc2)C(O)C(C)O1` (stereo not shown) [Example 62], for which the entries for the “Inhibition Ratio (%)” value in the assay with SK-OV-3 cells and with MDA-MB-453 cells were 63.6% and 83.7%, respectively. In addition, the IC50 in the assay with DU-145 cells worked out at 34 nM.
Regarding `CC(=O)O.COc1cccc2c1C(=O)c1c(O)c3c(c(O)c1C2=O)CC(O)(C(=O)COC(=O)CCC(=O)NCCCN1CCN(C)CC1)CC3O[C@H]1C[C@H](n2cccc2)[C@H](O)[C@H](C)O1` (stereo partly drawn) [Example 81, 10-((3′-(pyrrol-1-yll)-2′,3′,6′-trideoxy-alphal-l-lyxo-hexylpyranyl)oxy)-7,8,9,10-tetrahydro-6,8,11-trihydroxy-13-oxo-14-(4-((3-(4-methylpiperazin-1-yl)propyl)amino)-4-oxo-butyrato)-1-methoxy-5,12-naphthalenedione acetate], the IC50 turned out to be 42 nM with A431 cells and 225 nM in the assay with MCF-7 cells. The “Inhibition Ratio (%)” value is recorded as 56.4% in the assay on SK-OV-3 cells and 72% in the assay with MDA-MB-453 cells.
